Assay results from US9512107B2, “Therapeutically active compositions and their methods of use” (Agios Pharmaceuticals, Inc., priority 2012, dated 2016).
Where a chain is given by its changes, count along the chain named.

What was measured:
[1] = target: T1, IDH2 R140Q (Homo sapiens, UniProt P48735, R140Q); experiment: IDH2 R140Q enzymatic assay (cofactor depletion, similar format); format: biochemical; conditions: read-out: Enz R140Q
T1 sequence (P48735 40-452 R140Q): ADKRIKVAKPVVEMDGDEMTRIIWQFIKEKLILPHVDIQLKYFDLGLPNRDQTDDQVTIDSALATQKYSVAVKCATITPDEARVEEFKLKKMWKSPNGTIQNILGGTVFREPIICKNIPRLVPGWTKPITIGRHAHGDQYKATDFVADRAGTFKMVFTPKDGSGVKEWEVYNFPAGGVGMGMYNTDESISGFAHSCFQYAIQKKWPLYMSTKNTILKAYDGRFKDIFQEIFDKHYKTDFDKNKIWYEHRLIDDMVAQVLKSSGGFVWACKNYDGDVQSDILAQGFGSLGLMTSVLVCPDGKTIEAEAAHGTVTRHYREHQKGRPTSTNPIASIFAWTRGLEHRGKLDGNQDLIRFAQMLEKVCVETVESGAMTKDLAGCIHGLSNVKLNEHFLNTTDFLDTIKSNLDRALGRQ

[2] = test system: U87MG pLVX-IDH2 R140Q-neo cells; experiment: U87MG pLVX-IDH2 R140Q-neo cell based assay, 2-HG in media by LC-MS at 48 hours; conditions: Homo sapiens, U-87 MG
How it was run: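 2-HG secreted into the medium was measured by LC-MS after 48 h of compound treatment (0.2% DMSO final) of U87MG pLVX-IDH2 R140Q-neo cells in DMEM/10% FBS. The same wells were assayed at 72 h by CellTiter-Glo luminescence for effects on growth.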

[3] = target: T2, IDH2 R172K (Homo sapiens, UniProt P48735, R172K); experiment: IDH2 R172K enzymatic assay (NADPH cofactor depletion, diaphorase/resazurin readout); format: biochemical; conditions: read-out: Enz R172K
T2 sequence (P48735 40-452 R172K): T1 sequence (P48735 40-452 R140Q) with Q101R, R133K
How it was run: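 Cofactor depletion format: enzyme + compound 1 h RT; add substrate mix (50 μM NADPH, 6.3 mM α-KG); react 1 h RT; quench with stop mix (36 μg/ml diaphorase, 60 μM resazurin); read resorufin fluorescence as residual NADPH.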

Row | SMILES | IC50 [1] [nM] | IC50 [2] [nM] | IC50 [3] [nM]
1 | CC(C)(C)CNc1nc(Nc2cncc(C#N)c2)nc(-c2cccc(Cl)n2)n1 [Compound 498, 5-[4-(6-Chloro-pyridin-2-yl)-6-(2,2-dimethyl-propylamino)-[1,3,5]triazin-2-ylamino]-nicotinonitrile] | 100 to 1000 | 100 to 1000 | 1000 to 10000
2 | COCC(C)Nc1nc(Nc2ccnc(C(F)(F)F)c2)nc(-c2cccc(Cl)n2)n1 (stereo not drawn) [Compound 499, 6-(6-Chloro-pyridin-2-yl)-N-(2-methoxy-1-methyl-ethyl)-N′-(2-trifluoromethyl-pyridin-4-yl)-[1,3,5]triazine-2,4-diamine] | 100 to 1000 | < 100 | < 100
3 | CC(C)(O)CNc1nc(Nc2ccnc(F)c2)nc(-c2cccc(C(F)(F)F)n2)n1 [Compound 500, 1-[4-(2-Fluoro-pyridin-4-ylamino)-6-(6-trifluoromethyl-pyridin-2-yl)-[1,3,5]triazin-2-ylamino]-2-methyl-propan-2-ol] | 100 to 1000 | < 100 | < 100
4 | Cc1cc(Nc2nc(NC(C)C)nc(-c3cccc(C(F)(F)F)n3)n2)cnn1 [Compound 501, N-Isopropyl-N′-(6-methyl-pyridazin-4-yl)-6-(6-trifluoromethyl-pyridin-2-yl)-[1,3,5]triazine-2,4-diamine] | 100 to 1000 | 100 to 1000 | 1000 to 10000
5 | CC(C)Nc1nc(Nc2cncc(F)c2)nc(-c2cccc(C(F)(F)F)n2)n1 [Compound 503, N-(5-Fluoro-pyridin-3-yl)-N′-isopropyl-6-(6-trifluoromethyl-pyridin-2-yl)-[1,3,5]triazine-2,4-diamine] | 1000 to 10000 | < 100 | < 100
6 | FC(F)(F)c1cc(Nc2nc(NC3C4COCC43)nc(-c3cccc(C(F)(F)F)n3)n2)ccn1 (stereo not drawn) [Compound 504, N-(3-Oxa-bicyclo[3.1.0]hex-6-yl)-N′-(2-trifluoromethyl-pyridin-4-yl)-6-(6-trifluoromethyl-pyridin-2-yl)-[1,3,5]triazine-2,4-diamine] | 100 to 1000 | < 100 | < 100
7 | N#Cc1cc(Nc2nc(NC3C4COCC43)nc(-c3cccc(C(F)(F)F)n3)n2)ccn1 (stereo not drawn) [Compound 505, 4-[4-(3-Oxa-bicyclo[3.1.0]hex-6-ylamino)-6-(6-trifluoromethyl-pyridin-2-yl)-[1,3,5]triazin-2-ylamino]-pyridine-2-carbonitrile] | 100 to 1000 | < 100 | 100 to 1000
8 | Fc1cncc(Nc2nc(NC3C4COCC43)nc(-c3cccc(Cl)n3)n2)c1 (stereo not drawn) [Compound 511, 6-(6-Chloro-pyridin-2-yl)-N-(5-fluoro-pyridin-3-yl)-N′-(3-oxa-bicyclo[3.1.0]hex-6-yl)-[1,3,5]triazine-2,4-diamine] | 100 to 1000 | < 100 | 100 to 1000
9 | Fc1ccc(Nc2nc(NC3C4COCC43)nc(-c3cccc(Cl)n3)n2)cn1 (stereo not drawn) [Compound 512, 6-(6-Chloro-pyridin-2-yl)-N-(6-fluoro-pyridin-3-yl)-N′-(3-oxa-bicyclo[3.1.0]hex-6-yl)-[1,3,5]triazine-2,4-diamine] | 100 to 1000 | < 100 | 100 to 1000
10 | CC(C)Nc1nc(Nc2ccnc(C(C)(F)F)c2)nc(-c2cccc(Cl)n2)n1 [Compound 513, 6-(6-Chloro-pyridin-2-yl)-N-[2-(1,1-difluoro-ethyl)-pyridin-4-yl]-N′-isopropyl-[1,3,5]triazine-2,4-diamine] | 1000 to 10000 | < 100 | 100 to 1000
11 | CC(C)Nc1nc(Nc2ccnc(C(C)(C)O)c2)nc(-c2cccc(Cl)n2)n1 [Compound 514, 2-{4-[4-(6-Chloro-pyridin-2-yl)-6-isopropylamino-[1,3,5]triazin-2-ylamino]-pyridin-2-yl}-propan-2-ol] | 100 to 1000 | < 100 | < 100
12 | CC1CC1Nc1nc(Nc2ccnc(C(F)(F)F)c2)nc(-c2ccccn2)n1 (stereo not drawn) [Compound 516, N-(2-Methyl-cyclopropyl)-6-pyridin-2-yl-N′-(2-trifluoromethyl-pyridin-4-yl)-[1,3,5]triazine-2,4-diamine] | 100 to 1000 | < 100 | < 100
13 | CC(C)(C)CNc1nc(Nc2ccnc(C(F)(F)F)c2)nc(-c2ccccn2)n1 [Compound 517, N-(2,2-Dimethyl-propyl)-6-pyridin-2-yl-N′-(2-trifluoromethyl-pyridin-4-yl)-[1,3,5]triazine-2,4-diamine] | 100 to 1000 | < 100 | < 100
